Four compounds from patent publication US20050076943A1, “Thermoelectric sensor” (priority 2001, published 2005) can be followed below.

Each structure is given as a SMILES string.

The subject of experiment [1] is rabbit ventricular cardiomyocytes. Put plainly: Heat output from isolated cardiac myocytes challenged with a mitochondrial uncoupler. The format is cell-based. As to conditions: CCCP 14 μM final concentration, n=5. As for the experimental part: Cardiomyocytes. Isolated cells were obtained from adult rabbit left ventricle by collagenase digestion and kept in Base Krebs Solution, containing: 120 mM NaCl, 20 mM sodium N-hydroxyethylpiperazine-N′-2-ethane sulphonic acid (HEPES), 5.4 mM KCl, 0.52 mM NaH2PO4, 3.5 mM MgCl2.6 H2O, 20 mM taurine, 10 mM creatine, 11.1 mM glucose, 0.1% bovine serum albumin (BSA), pH 7.4. Cells were transferred to the sensor chips using a pipette (manual or robotic instrument) and placed onto the thermocouple junctions.
Experimental Set-up: The sensor chip used in the experiment (FIG. 1) was connected to the custom-made low noise preamplifier, which was positioned within 1 cm of the sensor chip in order to reduce attenuation of the voltage signal and minimise interference. The chip-holder was connected to the amplifier through a gold plated 2.54 mm (0.1 inch) pitch PCB edge connector (gold was used consistently in all contacts to avoid the creation of additional thermocouple junctions between the sensor output and the amplifier input). A transparent chamber enclosed the sensor from the surrounding air to eliminate rapid temperature changes. Water (37° C. or 25° C.), maintained at a constant temperature, was circulated through a 1 ml chamber integrated as part of the copper base plate. […]

A further experiment has as its system single mouse liver cell. As to conditions: H2O2 initial concentration 14 mM, 700 pL, n=3.
For a further experiment, the system named is brown adipocytes. The experiment can be described thus: Thermogenic response (heat output) of cultured brown adipocytes on the thermoelectric sensor. The format is cell-based. As for the experimental part:
Brown adipocytes. Brown adipose tissue (BAT) was dissected from the interscapular, subscapular and the axillary regions of four 4-week-old male Naval Medical Research Institute (NMRI) mice. Pre-adipocytes were isolated and seeded in three 30 mm culture dishes and incubated in medium containing sodium bicarbonate (3.7 g/l) under 8% CO2 atmosphere for 6 days, after which time they were harvested. The culture medium based on DMEM with pH 7.4, was modified with 10% foetal calf serum, 20 nM insulin, 1 nM triiodothyronin (T3), 25 μg/ml Na-ascorbate, 4 mM glutamine, 10 mM HEPES, 50 IU/ml penicillin and 50 μg/ml streptomycin. Insulin was required for the expression of mitochondrial uncoupling protein (UCP) whereas the presence of T3 increased the thermogenic response due to more β-adrenergic receptors on the cells. All chemicals were supplied from Sigma-Aldrich and ICN Biomedicals Inc.
Experimental Set-up: The sensor chip used in the experiment (FIG. 1) was connected to the custom-made low noise preamplifier, which was positioned within 1 cm of the sensor chip in order to reduce attenuation of the voltage signal and minimise interference. The chip-holder was connected to the amplifier through a gold plated 2.54 mm (0.1 inch) pitch PCB edge connector (gold was used consistently in all contacts to avoid the creation of additional thermocouple junctions between the sensor output and the amplifier input). A transparent chamber enclosed the sensor from the surrounding air to eliminate rapid temperature changes. Water (37° C. or 25° C.), maintained at a constant temperature, was circulated through a 1 ml chamber integrated as part of the copper base plate. Both amplifier and sensor were positioned under a stereo-microscope for the manipulation and positioning of cells, injection of drugs and visual observation throughout the experiment,. The attachment of cells on the thermopile was enhanced by pre-treating the sensor surface with poly-L-lysine, adsorbed from a 0.01% solution in buffer.
The cell chamber was first covered with a 0.5 μL drop of culture medium with a subsequent addition of 15 μL liquid paraffin (mineral oil) in order to prevent evaporation of the medium. Re-suspended adipocytes (or cardiomyocytes) were positioned on top of the sensing junctions using a micropipette and micromanipulator (FIG. 3a, b, c). Excess medium was removed from the titre chamber leaving a total volume of 700 pL.
Measurements of heat output from cells were made with the cell chamber filled with 700 pL of culture medium and overlain with a layer of mineral oil to prevent evaporation. The device was held at a constant temperature of either 25° C. or 37° C. In the absence of cells there was no response from the thermopile to the injection of 10 pL of culture medium, nor to 10 pL culture medium containing a final concentration of 1.4 μM NE (see FIG. 4). […] The magnitude of the response was consistent with published values from populations of cells, where above-threshold levels of NE activation induced a ten-fold increase in oxygen consumption.

From the text for single mouse liver cell: The culture medium (pH 7.4) required to accommodate the cell occupied the full volume of the reaction vessel, and was considered to have the same thermodynamic properties as water. […] The heat conductance for a single cell system would be 80 μW/K with a heat capacity of 1 μJ/K.
Subsequently a mouse liver cell was positioned by a micromanipulator and immobilised on top of the temperature sensors in the reaction vessel with the aid of Cell-Tak tissue adhesive ensuring good thermal contact between the cell and sensor surface. H2O2 was then microinjected to yield an initial concentration of 14 mM after 200 seconds of the experiment commencing. The slightly altered pH value of the medium has minimal effect on the catalase activity. […] The short time constant for thermal equilibrium of the sensor (12 ms) compared to the long time duration of the measured signal (100 s), excludes a temperature difference in the injected solution as the cause of the measured temperature change.

Consider `N#CC(C#N)=NNc1cccc(Cl)c1` [CCCP, carbonyl cyanide m-chlorophenyl hydrazone], for which the “heat production per cell” value in experiment [1] is 1.71 nW per cell. In experiment [1] (within three minutes), the “mean change in signal” value was 136 μK.

`OO` [H2O2, Hydrogen peroxide]: the “generated power, maximum signal change” value in the experiment with single mouse liver cell was determined as 38.2 nW.

For the compound `NC[C@H](O)c1ccc(O)c(O)c1` [NE, noradrenaline], the “time to maximum value of heat production” value in the experiment with brown adipocytes (1.4 μM NE final concentration (saturated thermogenic response)) was no more than 2 min. The “duration for which heat output was sustained” value in the experiment on brown adipocytes (NE-stimulated cells, 1.4 μM) is reported as “at least 20 minutes”. For the same compound, the “average power output per cell” value with brown adipocytes (brown adipocytes, 1.4 μM NE final concentration, n=5) amounted to 1.63 nW per cell. In the experiment with brown adipocytes (groups of 10 brown adipocytes, 1.4 μM NE final concentration, 700 pL chamber, n=5), the “average power output, thermogenic response from groups of 10 NE-stimulated cells” value was found to be 16.3 nW.

Turning to `C=C(C)[C@H]1Cc2c(ccc3c2O[C@@H]2COc4cc(OC)c(OC)cc4[C@@H]2C3=O)O1` [rotenone], in the experiment with brown adipocytes (NE-stimulated brown adipocytes, rotenone 14 μM final concentration), the “delay before temperature response began to return to basal level” value worked out at 3 min. The “time for temperature response to return to basal level” value in the experiment on brown adipocytes (NE-stimulated brown adipocytes, rotenone 14 μM final concentration, after the delay) is no more than 5 min.
